Data taken from the Deep4Chem optical property database.
Where “and” joins values, the source holds several entries; their conditions need not be identical. Equal values may be shown once. Blank lines part the entries; values can stand above or below the molecule they belong to.

Assay: photoluminescence quantum yield (fraction); solvent given as SMILES
[1] = in c1cc(-n2c3ccccc3c3ccccc32)cc(-n2c3ccccc3c3ccccc32)c1
[2] = in c1cc(-c2cccc(-n3c4ccccc4c4ccccc43)c2)cc(-n2c3ccccc3c3ccccc32)c1

SMILES: O=C1c2ccccc2-c2cccc(O)c21
photoluminescence quantum yield (in C1CCCCC1): 0.0129 | photoluminescence quantum yield (in C1COCCO1): 0.0284 | photoluminescence quantum yield (in CC#N): 0.053 | photoluminescence quantum yield (in CC(C)O): 0.024 | photoluminescence quantum yield (in CCCCO): 0.022 | photoluminescence quantum yield (in CCCO): 0.021 | photoluminescence quantum yield (in CCO): 0.0197 | photoluminescence quantum yield (in CCOC(C)=O): 0.0383 | photoluminescence quantum yield (in CCOCC): 0.022 | photoluminescence quantum yield (in CO): 0.012

SMILES: COc1ccc(-c2csc(/C(C#N)=C/c3ccc([N+](=O)[O-])cc3)n2)cc1
photoluminescence quantum yield (in CC#N): 0

SMILES: C[n+]1cc2ccc3c[n+](C)cc4ccc(c1)c2c34
photoluminescence quantum yield (in CC#N): 0.6

SMILES: O=C(c1ccc(N2c3ccccc3Oc3ccccc32)cc1)c1ccc(N2c3ccccc3Oc3ccccc32)cc1
photoluminescence quantum yield (in Cc1ccccc1): 0.44 | photoluminescence quantum yield [1]: 0.7

SMILES: CCN(CC)c1ccc(C=Cc2nc3nc4ccccc4nc3s2)cc1
photoluminescence quantum yield (in CCO): 0.36

SMILES: COc1ccc2c(-c3nc(-c4cccc(Br)c4)no3)cc(=O)oc2c1
photoluminescence quantum yield (in CCO): 0.41 | photoluminescence quantum yield (in ClC(Cl)Cl): 0.33

SMILES: CCN(CC)c1c2ccc(=[N+]3CCCCC3)cc-2oc2cc(N3CCCCC3)ccc12
photoluminescence quantum yield (in ClCCl): 0.11

SMILES: CN(C)c1c2ccccc2cc2ccccc12
photoluminescence quantum yield (in C1CCCCC1): 0.008 | photoluminescence quantum yield (in C1CCOC1): 0.01 | photoluminescence quantum yield (in C1COCCO1): 0.013 | photoluminescence quantum yield (in CC#N): 0.007 | photoluminescence quantum yield (in CCO): 0.007 | photoluminescence quantum yield (in CN(C)C=O): 0.016 | photoluminescence quantum yield (in CO): 0.008 | photoluminescence quantum yield (in COCCOC): 0.007 | photoluminescence quantum yield (in CS(C)=O): 0.018 | photoluminescence quantum yield (in O): 0.011 | photoluminescence quantum yield (in OCC(O)CO): 0.068 | photoluminescence quantum yield (in OCCO): 0.022

SMILES: CC1(C)c2ccccc2N(c2ccc(-c3cc(C#N)c(C#N)cc3-c3ccc(N4c5ccccc5C(C)(C)c5ccccc54)cc3)cc2)c2ccccc21
photoluminescence quantum yield (in Cc1ccccc1): 0.59 | photoluminescence quantum yield [2]: 0.86

SMILES: O=c1cc2cc(O)c3c(O)ccc4ccc(o1)c2c43
photoluminescence quantum yield (in CC1CCCO1): 0.52

SMILES: CCCCCCc1cc2/c(=C(\C#N)C(=O)OC)s/c(=c3/s/c(=C(/C#N)C(=O)OC)c4cc(CCCCCC)sc34)c2s1
photoluminescence quantum yield (in Cc1ccccc1): 0.086

SMILES: CCCCCCCCN1c2ccc(C#Cc3ccc(F)cc3)cc2Sc2cc(C=O)ccc21
photoluminescence quantum yield (in C1CCOC1): 0.64 | photoluminescence quantum yield (in CC#N): 0.24 | photoluminescence quantum yield (in CCCCCC): 0.48 | photoluminescence quantum yield (in CO): 0.07 | photoluminescence quantum yield (in CS(C)=O): 0.75 | photoluminescence quantum yield (in Cc1ccccc1): 0.52 | photoluminescence quantum yield (in ClC(Cl)Cl): 0.4

SMILES: COc1ccc(N(c2ccc(/C=C(\C)c3ccccc3)cc2)c2ccc(OC)cc2)cc1
photoluminescence quantum yield (in Cc1ccccc1): 0.41

SMILES: c1ccc(-c2nc(-c3ccccc3)nc(-n3c4ccccc4c4cc(-n5c6ccccc6c6ccccc65)ccc43)n2)cc1
photoluminescence quantum yield (in O=P(c1ccccc1)(c1ccccc1)c1ccccc1Oc1ccccc1P(=O)(c1ccccc1)c1ccccc1): 0.62

SMILES: Nc1ccc(/C=C/c2ccccc2)cc1
photoluminescence quantum yield (in CC#N): 0.03 | photoluminescence quantum yield (in CCCCCC): 0.03

SMILES: CCCCCCOc1cc(C=C(C#N)C#N)c(OCCCCCC)cc1C=C(C#N)C#N
photoluminescence quantum yield (in ClCCl): 0.868

SMILES: COc1cc2c3c4c(c5ccc(C(C)(C)C)cc5c5c(OC)cc(OC)c(c2c(OC)c1OC)c45)=[N+]1C3=Nc2c3c4cc(OC)c(OC)c(OC)c4c4c(OC)cc(OC)c5c6cc(C(C)(C)C)ccc6c(c3c54)n2[B-]1(F)F
photoluminescence quantum yield (in Cc1ccccc1): 0.13

SMILES: O=S(=O)(c1ccc(-c2ccc3c(c2)c2ccccc2n3-c2ccccc2)cc1)c1ccc(-c2ccc3c(c2)c2ccccc2n3-c2ccccc2)cc1
photoluminescence quantum yield (in Cc1ccccc1): 1

SMILES: CNC(=O)[C@H](C)NC(=O)c1cccc2c1C#Cc1c(NC(=O)[C@@H](NC(C)=O)C(C)C)cccc1OCCCO2
photoluminescence quantum yield (in CC#N): 0.02 | photoluminescence quantum yield (in ClCCl): 0.03

SMILES: COc1ccc(C#Cc2cc3ccccc3oc2=O)cc1
photoluminescence quantum yield (in CC#N): 0.55

SMILES: COc1cc(OC)cc(C2=[O+][B-](F)(F)OC(c3ccc4cc(OC)ccc4c3)=C2)c1
photoluminescence quantum yield (in CC#N): 0.22 | photoluminescence quantum yield (in CC(C)=O): 0.37 | photoluminescence quantum yield (in CCCCCC): 0.26 | photoluminescence quantum yield (in Cc1ccccc1): 0.79 | photoluminescence quantum yield (in ClCCl): 0.95

SMILES: Cc1ccc(-c2nc3c([nH]2)C2=CC(=O)S[C@]2(C)[C@@]2(C)SC(=O)C=C32)cc1
photoluminescence quantum yield (in CC#N): 0.14

SMILES: N#Cc1c(-n2cc(-c3ccccc3)nn2)n([C@H]2C[C@H](O)[C@@H](CO)O2)c2ncnc(N)c12
photoluminescence quantum yield (in CO): 0.004

SMILES: CN(C)c1ccc(/C=C/c2ccc(-c3nc(C#N)c(C#N)n3C)cc2)cc1
photoluminescence quantum yield (in C1CCCCC1): 0.17 | photoluminescence quantum yield (in CC#N): 0.002 | photoluminescence quantum yield (in CO): 0.002 | photoluminescence quantum yield (in ClC(Cl)Cl): 0.16

SMILES: CN(C)c1ccc(C#Cc2ccc(-c3nc(C#N)c(C#N)n3C)cc2)cc1
photoluminescence quantum yield (in C1CCCCC1): 0.84 | photoluminescence quantum yield (in CC#N): 0.005 | photoluminescence quantum yield (in CO): 0.003 | photoluminescence quantum yield (in ClC(Cl)Cl): 0.88

SMILES: N#Cc1cc(-n2c3ccccc3c3ccccc32)c(C#N)cc1-n1c2ccccc2c2ccccc21
photoluminescence quantum yield [2]: 0.87 | photoluminescence quantum yield (in c1ccc2c(c1)c1ccccc1n2P1(n2c3ccccc3c3ccccc32)=NP(n2c3ccccc3c3ccccc32)(n2c3ccccc3c3ccccc32)=NP(n2c3ccccc3c3ccccc32)(n2c3ccccc3c3ccccc32)=N1): 0.85

SMILES: Cc1cc(C)c(C2=C3C=c4c(c5ccccc5c5ccccc45)=[N+]3[B-](F)(F)n3c2cc2c4ccccc4c4ccccc4c23)c(C)c1
photoluminescence quantum yield (in C1CCCCC1): 0.64 | photoluminescence quantum yield (in C1CCOC1): 0.55 | photoluminescence quantum yield (in CC#N): 0.55 | photoluminescence quantum yield (in Cc1ccccc1): 0.51 | photoluminescence quantum yield (in ClCCl): 0.51 and 0.55

SMILES: OB(O)c1ccc(-c2ccc(N(c3ccccc3)c3ccccc3)cc2)cc1
photoluminescence quantum yield (in C1CCCCC1): 0.72 | photoluminescence quantum yield (in C1CCOC1): 0.65 | photoluminescence quantum yield (in CC#N): 0.68 | photoluminescence quantum yield (in CCO): 0.81 | photoluminescence quantum yield (in CCOC(C)=O): 0.66 | photoluminescence quantum yield (in CCOCC): 0.65 | photoluminescence quantum yield (in CO): 0.62

SMILES: CN(C)c1ccc2nc(-c3ccc(C(=O)O)cc3)sc2c1
photoluminescence quantum yield (in C1CCCCC1): 0.89 | photoluminescence quantum yield (in CC#N): 0.86 | photoluminescence quantum yield (in CC(C)O): 0.96 | photoluminescence quantum yield (in CO): 0.84 | photoluminescence quantum yield (in CS(C)=O): 0.98 | photoluminescence quantum yield (in ClC(Cl)Cl): 0.96 | photoluminescence quantum yield (in c1ccccc1): 0.85

SMILES: COc1ccc(-n2nc(C(=O)c3ccc(Cl)cc3)c(N3CCCC3)n2)cc1
photoluminescence quantum yield (in CC#N): 0.004

SMILES: C[Si]1(C)c2ccccc2-c2ccccc21
photoluminescence quantum yield (in ClCCl): 0.14

SMILES: COc1cc2c(cc1OC)C1=C[C@H](c3ccc(C)cc3)C3(C(C#N)=C(C#N)N1CC2)c1cc(Br)ccc1-c1ccc(Br)cc13
photoluminescence quantum yield (in ClCCl): 0.00023

SMILES: O=S1(=O)C(c2ccsc2)=C(c2ccsc2)c2ccccc21
photoluminescence quantum yield (in C1CCOC1): 0.005

SMILES: CNc1cccc2c1C(=O)c1ccccc1C2=O
photoluminescence quantum yield (in C1CCC2CCCCC2C1): 0.014 | photoluminescence quantum yield (in C1CCCCC1): 0.0135 | photoluminescence quantum yield (in CC1CCCCC1): 0.0138 | photoluminescence quantum yield (in CC#N): 0.0026 | photoluminescence quantum yield (in CCC(C)CC): 0.0136 | photoluminescence quantum yield (in CCCCCC): 0.0136 | photoluminescence quantum yield (in CCOC(C)=O): 0.0048

SMILES: CN(C)c1ccc(/C=C/c2ccccn2)cc1
photoluminescence quantum yield (in C1CCCCC1): 0.017 | photoluminescence quantum yield (in C1CCOC1): 0.042 | photoluminescence quantum yield (in C1COCCO1): 0.031 | photoluminescence quantum yield (in CC#N): 0.048 | photoluminescence quantum yield (in CC(C)O): 0.024 | photoluminescence quantum yield (in CCCCCC): 0.016 | photoluminescence quantum yield (in CCCCCCC): 0.017 | photoluminescence quantum yield (in CCCCO): 0.026 | photoluminescence quantum yield (in CCO): 0.032 | photoluminescence quantum yield (in CCOC(C)=O): 0.03 | photoluminescence quantum yield (in CCOCC): 0.022 | photoluminescence quantum yield (in CN(C)C=O): 0.051 | photoluminescence quantum yield (in CO): 0.019 | photoluminescence quantum yield (in CS(C)=O): 0.054 | photoluminescence quantum yield (in O): 0.015

The next lines start with the values.

photoluminescence quantum yield (in ClCCl): 0
SMILES: F[B-]1(F)n2c(c(-c3ccccc3)c(-c3cccs3)c2-c2ccccc2)N=C2C(c3ccccc3)=C(c3cccs3)C(c3ccccc3)=[N+]21

photoluminescence quantum yield (in ClCCl): 0.5
SMILES: CC(C)[Si](C#Cc1c2nc3ccccc3nc2c(C#C[Si](C(C)C)(C(C)C)C(C)C)c2nc3c4ccccc4c(=O)c4ccccc4c3nc12)(C(C)C)C(C)C

photoluminescence quantum yield (in ClCCl): 0.55
SMILES: c1ccc(N(c2ccccc2)c2ccc(-c3ccncn3)cc2)cc1

photoluminescence quantum yield (in ClC(Cl)Cl): 0.152
SMILES: F[B-]1(F)OC(c2ccc(Br)cc2)=Cc2c3ccccc3c3ccccc3[n+]21

photoluminescence quantum yield (in CCO): 0.0473 | photoluminescence quantum yield (in ClCCl): 0.0242
SMILES: Oc1ccc(-c2cccs2)cc1-c1nc2ccccc2s1

photoluminescence quantum yield (in ClCCl): 0.19
SMILES: Cc1cc(-c2ccc(N(c3ccccc3)c3ccccc3)cc2)c2nsnc2c1-c1ccc(C(C)(C)C)cc1

photoluminescence quantum yield (in C1CCCCC1): 0.37 | photoluminescence quantum yield (in CCOC(C)=O): 0.1
SMILES: CC1=[N+]2C(=C(c3ccc(N(c4ccccc4)c4ccccc4)cc3)c3ccc(C)n3[B-]2(F)F)C=C1c1cc2n(c1)[B-](F)(F)[N+]1=CC=CC1=C2c1c(C)cc(C)cc1C

photoluminescence quantum yield (in CC#N): 0.89 | photoluminescence quantum yield (in ClCCl): 0.99
SMILES: O=c1c2cc(Cl)ccc2nc2n1[B-](F)(F)[n+]1ccccc1-2

photoluminescence quantum yield [2]: 0.15
SMILES: N#Cc1nc(-c2ccc(N3c4ccccc4Oc4ccccc43)cc2)c(-c2ccc(N3c4ccccc4Oc4ccccc43)cc2)nc1C#N

photoluminescence quantum yield (in ClCCl): 0.212
SMILES: COc1ccc(C2=C(C)C3=C(c4c(-c5ccccn5)nc5ccccn45)c4c(C)cc(C)n4[B-](F)(F)[N+]3=C2C)cc1

photoluminescence quantum yield [2]: 0.99
SMILES: CC(C)c1cc(C(C)C)c(B2c3cc(-n4c5ccccc5c5ccccc54)ccc3N(c3ccccc3)c3ccc(-n4c5ccccc5c5ccccc54)cc32)c(C(C)C)c1

photoluminescence quantum yield (in ClCCl): 0.01
SMILES: CN(C)c1ccc(C2=C3C=C(c4ccc(C=C(C#N)C#N)cc4)S[C@]34c3ccccc3[C@H]2c2ccccc24)cc1

photoluminescence quantum yield (in ClC(Cl)Cl): 0.72
SMILES: Cc1c2c(c(C)c3ccccc13)-c1cc3nc4ccccc4nc3cc1-2

photoluminescence quantum yield (in CC1CCCCC1): 0.46 | photoluminescence quantum yield (in CC#N): 0.45
SMILES: C(=C\c1c2ccccc2cc2ccccc12)/c1ccccc1

photoluminescence quantum yield (in C1CCCCC1): 0.75
SMILES: N#Cc1cc(C#N)c(-c2ccc(N(c3ccccc3)c3ccccc3)cc2)cc1-c1ccc(N(c2ccccc2)c2ccccc2)cc1

photoluminescence quantum yield (in ClCCl): 0.82 | photoluminescence quantum yield [1]: 0.86
SMILES: c1ccc(N(c2ccccc2)c2ccc(-c3ccc4c(c3)C3(c5cc(-c6ccc(N(c7ccccc7)c7ccccc7)cc6)ccc5-4)c4ccccc4N(c4ccccc4)c4ccccc43)cc2)cc1

photoluminescence quantum yield (in C1CCOC1): 0.42
SMILES: N#Cc1c(N2CCCCC2)cc(-c2cccc3ccccc23)c2c1CCc1ccccc1-2
